The text below walks through data of patent US20140031227A1, “HERBICIDAL COMPOSITIONS COMPRISING 4-AMINO-3-CHLORO-5-FLUORO-6-(4-CHLORO-2-FLUORO-3-METHOXYPHENYL) PYRIDINE-2-CARBOXYLIC ACID OR A DERIVATIVE THEREOF AND GLYPHOSATE OR GLUFOSINATE” (DOW AGROSCIENCES LLC, priority 2012, published 2014).

Common to all, as to type: in vivo
In assay [1] the test system is DIGSA (Digitaria sanguinalis (L.) Scop., large crabgrass). Nature of the assay: Example I postemergence foliar-applied mixtures, direct seeded rice weeds, greenhouse: DIGSA. The note with it: glyphosate DMA salt (Durango DMA) alone, 210 gae/ha. Here is the method: (§1) Seeds or nutlets of the desired test plant species were planted in a soil matrix prepared by mixing a loam or sandy loam soil (e.g., 28.6 percent silt, 18.8 percent clay, and 52.6 percent sand, with a pH of about 5.8 and an organic matter content of about 1.8 percent) and calcareous grit in an 80 to 20 ratio. The soil matrix was contained in plastic pots with a volume of 1 quart and a surface area of 83.6 square centimeters (cm^2). […] The plants were grown for 8-22 days in a greenhouse with an approximate 14 hr photoperiod which was maintained at about 29° C. during the day and 26° C. during the night. Nutrients (Peters Excel® 15-5-15 5-Ca 2-Mg and iron chelate) were applied in the irrigation solution as needed and water was added on a regular basis. Supplemental lighting was provided with overhead metal halide 1000-Watt lamps as necessary. The plants were employed for testing when they reached the first through fourth true leaf stage.
(§2) Treatments consisted of the acid or esters of 4-amino-3-chloro-5-fluoro-6-(4-chloro-2-fluoro-3-methoxy-phenyl)pyridine-2-carboxylic acid (Compound A), each formulated as an SC (suspension concentrate), and various herbicidal components alone and in combination. Forms of compound A were applied on an acid equivalent basis.
(§3) For treatments comprised of formulated compounds, measured amounts of compounds were placed individually in 25 mL glass vials and diluted in a volume of 1.25% (v/v) Agri-Dex® crop oil concentrated to obtain 12× stock solutions. […] Application solutions were prepared by adding an appropriate amount of each stock solution (e.g., 1 mL) and diluted to the appropriate final concentrations with the addition of 10 mL of an aqueous mixture of 1.25% (v/v) crop oil concentrate so that the final spray solutions contained 1.25+/−0.05% (v/v) crop oil concentrate.
(§4) All stock solutions and applications solutions were visually inspected for compound compatibility prior to application. Spray solutions were applied to the plant material with an overhead Mandel track sprayer equipped with a 8002E nozzles calibrated to deliver 187 L/ha over an application area of 0.503 m^2 at a spray height of 18 to 20 inches (46 to 50 cm) above average plant canopy height. Control plants were sprayed in the same manner with the solvent blank.
(§5) The treated plants and control plants were placed in a greenhouse as described above and watered by sub-irrigation to prevent wash-off of the test compounds. After approximately 3 weeks, the condition of the test plants as compared with that of the untreated plants was determined visually and scored on a scale of 0 to 100 percent where 0 corresponds to no injury or growth inhibition and 100 corresponds to complete kill.
(§6) Colby's equation was used to determine the herbicidal effects expected from the mixtures (Colby, S. R. 1967. Calculation of the synergistic and antagonistic response of herbicide combinations. Weeds 15:20-22.).

In assay [2] the test system is SORHA (Sorghum halepense (L.) Pers., johnsongrass). Nature of the assay: Example III postemergence foliar-applied mixtures, row crop weeds (corn, soybean), greenhouse: SORHA. Particulars: glyphosate DMA salt (Durango DMA) alone. Here is the method: (§7) Seeds or nutlets of the desired test plant species were planted in a soil matrix prepared by mixing a loam or sandy loam soil (e.g., 43 percent silt, 19 percent clay, and 38 percent sand, with a pH of about 8.1 and an organic matter content of about 1.5 percent) and calcareous grit in an 80 to 20 ratio. The soil matrix was contained in plastic pots with a surface area of 84.6 square centimters (cm^2) and a volume of 560 cubic centimeters (cm^3). […] The plants were grown for 7-31 days (d) in a greenhouse with an approximate 15 hour (h) photoperiod which was maintained at about 23-29° C. during the day and 22-28° C. during the night. Nutrients (Peters Excel® 15-5-15 5-Ca 2-Mg) and water were added on a regular basis and supplemental lighting was provided with overhead metal halide 1000-Watt lamps as necessary. The plants were employed for testing when they reached the first, second, or third true leaf stage.
Treatments consisted of the acid or esters of 4-amino-3-chloro-5-fluoro-6-(4-chloro-2-fluoro-3-methoxy-phenyl)pyridine-2-carboxylic acid (Compound A), each formulated as an
SC (suspension concentrate), and various herbicidal components alone and in combination. Forms of compound A were applied on an acid equivalent basis.
(§8) Other herbicidal components were applied on an acid equivalent or active ingredient basis and included the 5-enolpyruvylshikimate-3-phosphate synthase (EPSPS)-inhibiting herbicide, glyphosate dimethylamine salt, formulated as Durango DMA® and the glutamine synthase (GS)-inhibiting herbicide, glufosinate ammonium, formulated as Ignite® 280.
For treatments comprised of formulated compounds, measured amounts of compounds were placed individually in 25 mL glass vials and diluted in a volume of 1.5% (v/v) Agri-dex® crop oil concentrate to obtain 6× stock solutions. […] Application solutions were prepared by adding an appropriate amount of each stock solution (typically 2 mL) and diluted to the appropriate final concentrations with the addition of an aqueous mixture of 1.5% (v/v) crop oil concentrate and water so that the final spray solutions contained 1.25% (v/v) crop oil concentrate.
(§9) All stock solutions and applications solutions were visually inspected for compound compatibility prior to application. Compound requirements are based upon a 12 mL application volume at a rate of 187 liters per hectare (L/ha). Formulated compounds were applied to the plant material with an overhead Mandel track sprayer equipped with 8002E nozzles calibrated to deliver 187 L/ha over an application area of 0.503 square meters (m^2) at a spray height of 18 to 20 inches (46 to 50 cm) above the average plant canopy height. Control plants were sprayed in the same manner with the solvent blank.
The treated plants and control plants were placed in a greenhouse as described above and watered by sub-irrigation to prevent wash-off of the test compounds. After approximately 2 weeks, the condition of the test plants as compared with that of the untreated plants was determined visually and scored on a scale of 0 to 100 percent where 0 corresponds to no injury or growth inhibition and 100 corresponds to complete kill.
The following equation was used to calculate the expected activity of mixtures containing two active ingredients, A and B: […]

In assay [3] the test system is IPOHE (Ipomoea hederacea Jacq., ivyleaf morningglory). Nature of the assay: Example I postemergence foliar-applied mixtures, direct seeded rice weeds, greenhouse: IPOHE. Particulars: glyphosate DMA salt (Durango DMA) alone, 105 gae/ha. Here is the method: as §1, §2, §3, §4, §5, §6
Assay [4] concerns CHEAL (Chenopodium album L., common lambsquarters). Nature of the assay: Example IV postemergence foliar-applied mixtures, general weed control, greenhouse: CHEAL. The note with it: glyphosate DMA salt (Durango DMA) alone. As for the experimental part:
as §7, with “Sun Gro Metro-Mix® 360 planting mixture, which typically has” for “a soil matrix prepared by mixing a loam or sandy loam soil (e.g., 43 percent silt, 19 percent clay, and 38 percent sand, with”, “6.0 to 6.8” for “about 8.1”, “30 percent,” for “1.5 percent) and calcareous grit in an 80 to 20 ratio. The soil matrix was contained”, “square” for “square centimters (cm^2) and a volume of 560 cubic”, “(cm^2).” for “(cm^3).”
(§10) Treatments consisted of the acid or the benzyl ester of 4-amino-3-chloro-5-fluoro-6-(4-chloro-2-fluoro-3-methoxy-phenyl)pyridine-2-carboxylic acid (Compound A), each formulated as an SC, and various herbicidal components alone and in combination. Forms of compound A were applied on an acid equivalent basis.
as §8
(§11) For treatments comprised of formulated compounds, measured amounts of compounds were placed individually in 25 mL glass vials and diluted in a volume of 1.25% (v/v) Agri-dex crop oil concentrated to obtain 12× stock solutions. […] Application solutions were prepared by adding an appropriate amount of each stock solution (typically 1 mL) and diluted to the appropriate final concentrations with the addition of 10 mL of an aqueous mixture of 1.25% (v/v) Agri-dex crop oil concentrate so that the final spray solutions contained 1.25% (v/v) Agri-dex crop oil concentrate.
as §9, §5
(§12) Colby's equation was used to determine the herbicidal effects expected from the mixtures (Colby, S. R. 1967. Calculation of the synergistic and antagonistic response of herbicide combinations. Weeds 15:20-22.) .

For assay [5], the system named is DIGSA (Digitaria sanguinalis (L.) Scop., large crabgrass). Nature of the assay: Example IV postemergence foliar-applied mixtures, general weed control, greenhouse: DIGSA. The note with it: glyphosate DMA salt (Durango DMA) alone, 210 gae/ha. As for the experimental part: as §7, with “Sun Gro Metro-Mix® 360 planting mixture, which typically has” for “a soil matrix prepared by mixing a loam or sandy loam soil (e.g., 43 percent silt, 19 percent clay, and 38 percent sand, with”, “6.0 to 6.8” for “about 8.1”, “30 percent,” for “1.5 percent) and calcareous grit in an 80 to 20 ratio. The soil matrix was contained”, “square” for “square centimters (cm^2) and a volume of 560 cubic”, “(cm^2).” for “(cm^3).”
as §10, §8, §11, §9, §5, §12

Assay [6] concerns VIOTR (Viola tricolor L., wild violet). As to the kind of experiment: Example IV postemergence foliar-applied mixtures, general weed control, greenhouse: VIOTR. Particulars: glyphosate DMA salt (Durango DMA) alone. Here is the method:
as §7, with “Sun Gro Metro-Mix® 360 planting mixture, which typically has” for “a soil matrix prepared by mixing a loam or sandy loam soil (e.g., 43 percent silt, 19 percent clay, and 38 percent sand, with”, “6.0 to 6.8” for “about 8.1”, “30 percent,” for “1.5 percent) and calcareous grit in an 80 to 20 ratio. The soil matrix was contained”, “square” for “square centimters (cm^2) and a volume of 560 cubic”, “(cm^2).” for “(cm^3).”
as §10, §8, §11
All stock solutions and applications solutions were visually inspected for compound compatibility prior to application. Compound requirements are based upon a 12 mL application volume at a rate of 187 liters per hectare (L/ha). […]
The treated plants and control plants were placed in a greenhouse as described above and watered by sub-irrigation to prevent wash-off of the test compounds. After approximately 3 weeks, the condition of the test plants as compared with that of the untreated plants was determined visually and scored on a scale of 0 to 100 percent where 0 corresponds to no injury or growth inhibition and 100 corresponds to complete kill. […]

Assay [7] concerns SETFA (Setaria faberi Herrm., giant foxtail). Nature of the assay: Example IV postemergence foliar-applied mixtures, general weed control, greenhouse: SETFA. Particulars: glyphosate DMA salt (Durango DMA) alone. As for the experimental part: as §7, with “Sun Gro Metro-Mix® 360 planting mixture, which typically has” for “a soil matrix prepared by mixing a loam or sandy loam soil (e.g., 43 percent silt, 19 percent clay, and 38 percent sand, with”, “6.0 to 6.8” for “about 8.1”, “30 percent,” for “1.5 percent) and calcareous grit in an 80 to 20 ratio. The soil matrix was contained”, “square” for “square centimters (cm^2) and a volume of 560 cubic”, “(cm^2).” for “(cm^3).”
as §10, §8, §11, §9, §5, §12

Each structure is given as a SMILES string. Where a name gives a salt, the structure may show the parent alone.

For `O=C(O)CNCP(=O)(O)O` [Glyphosate DMA Salt, N-(phosphonomethyl)glycine, reference compound], in assay [1], the “Visual Weed Control (%) - 21 DAA DIGSA Obs” value is given as 75%. Also, the “Visual Weed Control (%) - 16 DAA SORHA Obs” value is reported as 0% in assay [2] (105 gae/ha), 10% in assay [2] (210 gae/ha) and 25% in assay [2] (420 gae/ha). The “Visual Weed Control (%) - 21 DAA IPOHE Obs” value in assay [3] was 30%. Further, the “Visual Weed Control (%) - 18 DAA CHEAL Obs” value is 0% in assay [4] (420 gae/ha) and 30% in assay [4] (840 gae/ha). Besides, the “Visual Weed Control (%) - 18 DAA DIGSA Obs” value in assay [5] is recorded as 40%. In addition, the “Visual Weed Control (%) - 18 DAA VIOTR Obs” value in assay [6] (210 gae/ha) is listed as 60%; in assay [6] (420 gae/ha), 85%. Further, the “VisualWeed Control (%) - 18 DAA SETFA Obs” value was found to be 10% in assay [7] (210 gae/ha) and 90% in assay [7] (420 gae/ha).
